Each structure is given as a SMILES string. Where two headings read alike, the source gives them in different places. A value given as a limit tells only on which side of the number the result lay.

In assay [1] the test system is MV-4-11. Nature of the assay: Cell proliferation modulatory activity, MV-4-11. In kind it is cell-based. Conditions: Homo sapiens, MV4-11; Table 45; read-out: MV-4-11 IC50.
Assay [2] relates to MiaPaca human pancreatic carcinoma cells. The experiment in a line: Cell-proliferation assay using Alamar Blue dye. In kind it is cell-based. The settings on record: MIA PaCa-2, Table 45. Here is the method: A representative cell-proliferation assay protocol using Alamar Blue dye (stored at 4° C., use 20 ul per well) is described hereafter.
• a. Split and trypsinize cells. • b. Count cells using hemocytometer. • c. Plate 4,000-5,000 cells per well in 100 μl of medium and seed into a 96-well plate according to the following plate layout. Add cell culture medium only to wells B10 to B12. Wells B1 to B9 have cells but no compound added.
• d. Add 100 μl of 2× drug dilution to each well in a concentration shown in the plate layout above. At the same time, add 100 μl of media into the control wells (wells B10 to B12). Total volume is 200 μl/well. • e. Incubate four (4) days at 37° C., 5% CO2 in a humidified incubator. • f. Add 20 μl Alamar Blue reagent to each well. • g. Incubate for four (4) hours at 37° C., 5% CO2 in a humidified incubator. • h. Record fluorescence at an excitation wavelength of 544 nm and emission wavelength of 590 nm using a microplate reader.
In the assays, cells are cultured with a test compound for approximately four days, the dye then is added to the cells and fluorescence of […] dye is detected after approximately four hours. Different types of cells can be utilized in the assays (e.g., HCT-116 human colorectal carcinoma cells, PC-3 human prostatic cancer cells and MiaPaca human pancreatic carcinoma cells). Anti-proliferative effects of representative compounds are provided hereafter
On the technique in general: Resazurin is reduced to fluorescent resorufin, in cell work by metabolically active cells.

Assay [3] has as its target recombinant human PIM1 (Homo sapiens (Human), UniProt P11309). The experiment in a line: PIM-1 kinase activity in cell-free in vitro assay. The class given is biochemical. Conditions: for inhibition at 0.5 µM: 500 nM compound, read-out: PIM-1: % inh 500 nM.
For assay [4], the system named is MDAMB231. The experiment in a line: MDAMB231 IC50. In kind it is cell-based. Conditions: Homo sapiens, MDA-MB-231; Table 45.
Assay [5] has as its system K-562. Nature of the assay: Cell proliferation modulatory activity, K-562. In kind it is cell-based. Conditions: Homo sapiens, K562; Table 45; read-out: K-562 IC50.
In assay [6] the test system is phosphoBAD ser 112. Nature of the assay: phosphoBAD ser 112 IC50. The class given is cell-based. Conditions: read-out: phosphoBAD ser 112 IC50; Table 45.
Assay [7] concerns the target PIM2 (Homo sapiens (Human), UniProt Q9P1W9). The experiment in a line: PIM2 IC50. The class given is biochemical. Conditions: Table 45.
Assay [8] relates to HCT-116 human colorectal carcinoma cells. Nature of the assay: Cell-proliferation assay using Alamar Blue dye. The class given is cell-based. The settings on record: Homo sapiens.
The subject of assay [9] is MV-4-11. Nature of the assay: Cell proliferation modulatory activity, MV-4-11. The class given is cell-based. The settings on record: Homo sapiens, MV4-11.
The subject of assay [10] is K-562. Nature of the assay: Cell proliferation modulatory activity, K-562. In kind it is cell-based. The settings on record: Homo sapiens, K562.
For assay [11], the target named is recombinant human CK2 (Homo sapiens (Human), UniProt P68400). Nature of the assay: CK2 assay (cell-free, 33P-ATP filter plate). The class given is biochemical. The settings on record: cell-free; for inhibition at 0.5 µM: 500 nM compound, read-out: CK2: % inh 500 nM.
Chain of recombinant human CK2 (P68400 whole entry): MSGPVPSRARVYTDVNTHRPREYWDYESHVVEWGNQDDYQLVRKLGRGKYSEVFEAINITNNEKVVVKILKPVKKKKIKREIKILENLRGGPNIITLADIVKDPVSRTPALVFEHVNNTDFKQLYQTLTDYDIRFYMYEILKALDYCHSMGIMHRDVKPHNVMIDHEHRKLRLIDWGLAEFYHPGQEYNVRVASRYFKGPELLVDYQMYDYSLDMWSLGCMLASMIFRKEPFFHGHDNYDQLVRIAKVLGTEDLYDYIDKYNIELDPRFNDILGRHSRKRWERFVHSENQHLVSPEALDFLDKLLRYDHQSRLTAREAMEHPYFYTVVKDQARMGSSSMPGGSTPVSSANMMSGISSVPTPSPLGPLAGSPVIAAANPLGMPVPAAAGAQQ
Chain of recombinant human CK2 (P67870 whole entry partner): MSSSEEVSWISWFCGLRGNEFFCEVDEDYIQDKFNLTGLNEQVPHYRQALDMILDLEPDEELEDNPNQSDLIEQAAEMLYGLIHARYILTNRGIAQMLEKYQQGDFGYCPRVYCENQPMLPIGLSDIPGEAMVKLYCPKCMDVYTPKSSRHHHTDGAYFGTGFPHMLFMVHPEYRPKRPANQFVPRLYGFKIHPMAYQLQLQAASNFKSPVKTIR
For assay [12], the target named is Flt3 (Homo sapiens (Human), UniProt P36888). Nature of the assay: FLT-3 kinase activity in cell free in vitro assay. Conditions: cell-free; read-out: FLT-3. The class given is biochemical.
Chain of Flt3 (P36888 27-993): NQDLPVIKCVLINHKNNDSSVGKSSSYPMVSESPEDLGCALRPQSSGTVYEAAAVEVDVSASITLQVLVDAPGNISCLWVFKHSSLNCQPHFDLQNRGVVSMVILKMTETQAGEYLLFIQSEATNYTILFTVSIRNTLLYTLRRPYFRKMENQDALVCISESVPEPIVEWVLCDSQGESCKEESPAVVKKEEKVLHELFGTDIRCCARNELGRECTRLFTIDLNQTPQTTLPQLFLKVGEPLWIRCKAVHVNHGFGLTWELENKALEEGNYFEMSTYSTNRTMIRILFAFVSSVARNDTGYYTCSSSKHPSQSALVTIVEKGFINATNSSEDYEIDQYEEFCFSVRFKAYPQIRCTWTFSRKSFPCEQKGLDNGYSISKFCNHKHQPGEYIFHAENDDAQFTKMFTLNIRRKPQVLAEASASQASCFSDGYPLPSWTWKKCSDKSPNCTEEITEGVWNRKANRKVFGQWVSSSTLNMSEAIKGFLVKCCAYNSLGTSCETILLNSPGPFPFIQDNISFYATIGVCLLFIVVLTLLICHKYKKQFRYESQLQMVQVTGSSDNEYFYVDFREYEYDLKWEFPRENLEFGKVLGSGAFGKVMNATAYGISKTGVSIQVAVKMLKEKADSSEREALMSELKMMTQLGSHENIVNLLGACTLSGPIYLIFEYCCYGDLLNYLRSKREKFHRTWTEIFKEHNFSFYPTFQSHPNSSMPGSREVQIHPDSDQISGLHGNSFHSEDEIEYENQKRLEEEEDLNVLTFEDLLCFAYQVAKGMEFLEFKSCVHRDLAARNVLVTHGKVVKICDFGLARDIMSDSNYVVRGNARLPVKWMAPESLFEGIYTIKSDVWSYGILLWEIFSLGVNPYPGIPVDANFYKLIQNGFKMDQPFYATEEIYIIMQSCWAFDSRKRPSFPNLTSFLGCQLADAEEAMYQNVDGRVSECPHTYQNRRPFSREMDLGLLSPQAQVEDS
[13] abbreviates: HCT-116, HCT-116, second column, read-out: HCT-116 (uM), cell proliferation modulatory activity.
Where [14] appears, read: HCT-116, read-out: HCT-116 (uM), cell proliferation modulatory activity, HCT-116, second column.
[15] abbreviates: HCT-116, read-out: HCT-116 (uM), cell proliferation modulatory activity, HCT-116, first column.
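Throughout, for HCT-116 (uM), cell proliferation modulatory activity: cells exposed to compound for about 4 days, then Alamar Blue added and dye fluorescence read after about 4 h, compared with medium-only control wells.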

Chain of recombinant human PIM1 (P11309 whole entry): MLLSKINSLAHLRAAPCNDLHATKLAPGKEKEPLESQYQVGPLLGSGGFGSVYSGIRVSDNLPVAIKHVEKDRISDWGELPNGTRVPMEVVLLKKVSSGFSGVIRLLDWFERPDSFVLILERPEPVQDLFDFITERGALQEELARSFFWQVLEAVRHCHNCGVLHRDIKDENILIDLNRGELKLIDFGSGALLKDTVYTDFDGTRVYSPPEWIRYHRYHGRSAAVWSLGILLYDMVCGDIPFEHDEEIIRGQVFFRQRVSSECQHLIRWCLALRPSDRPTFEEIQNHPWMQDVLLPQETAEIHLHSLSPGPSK
Chain of PIM2 (Q9P1W9 whole entry): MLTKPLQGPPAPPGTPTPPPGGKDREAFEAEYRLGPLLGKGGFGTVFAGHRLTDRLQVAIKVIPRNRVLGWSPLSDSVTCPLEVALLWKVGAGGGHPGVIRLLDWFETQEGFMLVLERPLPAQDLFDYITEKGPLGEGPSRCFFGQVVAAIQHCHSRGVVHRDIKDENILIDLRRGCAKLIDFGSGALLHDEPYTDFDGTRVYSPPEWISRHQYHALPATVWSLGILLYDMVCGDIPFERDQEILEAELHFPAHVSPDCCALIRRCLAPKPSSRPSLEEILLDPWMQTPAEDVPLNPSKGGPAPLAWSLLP

Regarding `NC(=O)c1cccc2c1nc(Nc1cccc(Cl)c1)c1cnccc12`, the IC50 in [1] was greater than 10000 nM; in assay [2] it was greater than 10000 nM; in [3] (Table 45) it was less than 500 nM; in assay [4] it was greater than 10000 nM; in assay [5], greater than 10000 nM.
For the compound `N#Cc1cccc(Nc2nc3c(-c4nc[nH]n4)cccc3c3cnccc23)c1`, the IC50 in [1] is less than 100 nM; in assay [2] it was greater than 10000 nM; in [3] (Table 45), less than 100 nM; in assay [6] it was less than 5000 nM; in [7], greater than 1100 nM; in [5] it was greater than 10000 nM.
For the compound `FC(F)(F)c1cccc(Nc2nc3c(-c4nnc[nH]4)cccc3c3cnccc23)c1`, the IC50 in assay [1] is less than 500 nM; in assay [2], less than 5000 nM; in assay [3] (Table 45), less than 500 nM; in [6], less than 1000 nM; in [7], greater than 1100 nM; in [5], less than 5000 nM.
As for `Fc1ccccc1Nc1nc2c(-c3nnc[nH]3)cccc2c2cnccc12`, the IC50 in assay [1] is less than 100 nM; in [2], less than 1000 nM; in assay [3] (Table 45) it was less than 100 nM; in assay [6] it was less than 5000 nM; in assay [7] it was less than 100 nM; in [5], less than 500 nM.
Turning to `CN(C)CCNC(=O)Cc1cccc(Nc2nc3cc(C(=O)O)ccc3c3sccc23)c1`, the inhibition at 0.5 µM in [3] (cell-free) was 69.2%; in assay [11], 53.3%. The IC50 in assay [3] (cell-free) was 283 nM; in assay [8] (setting [13]), greater than 10 µM; in [9], greater than 10 µM; in assay [10] it was greater than 10 µM.
Regarding `Fc1ccc(Nc2nc3c(-c4nnc[nH]4)cccc3c3cnccc23)c(Cl)c1`, the IC50 in assay [1] is less than 500 nM; in [2] it was greater than 10000 nM; in [3] (Table 45), less than 100 nM; in assay [6], less than 500 nM; in assay [7], less than 100 nM; in assay [5], less than 500 nM.
For `Cc1ccc(F)cc1Nc1nc2c(-c3nnc[nH]3)cccc2c2cnccc12`, the IC50 in [4] is greater than 10000 nM; in assay [7] it was less than 100 nM; in [5] it was greater than 10000 nM.
As to `O=C(O)c1ccc2c(c1)nc(Nc1cc(F)cc(F)c1)c1ccncc12`, the inhibition at 0.5 µM in assay [3] (cell-free) amounted to 92.4%. Also, the IC50 was 111 nM in assay [3] (cell-free), 4.33 µM in assay [8] (setting [14]), greater than 10 µM in assay [9] and 3.26 µM in assay [10].
In the case of `CNS(=O)(=O)c1cccc(Nc2nc3cc(C(=O)O)ccc3c3sccc23)c1`, in [3] (cell-free), the inhibition at 0.5 µM amounted to 82.8%. Further, the IC50 in assay [3] (cell-free) is 159 nM; in assay [8] (setting [14]) it was greater than 10 µM; in [9], greater than 10 µM; in [10] it was greater than 10 µM.
As for `COc1ccccc1Nc1nc2c(-c3nnc[nH]3)cccc2c2cnccc12`, the IC50 in assay [1] is less than 100 nM; in [3] (Table 45), less than 100 nM; in assay [4], less than 5000 nM; in assay [6], less than 100 nM; in assay [7], less than 1000 nM; in [5], less than 5000 nM.
As to `CN(C)CCNc1nc2cc(-c3nnn[nH]3)ccc2c2sccc12`, the inhibition at 0.5 µM in [3] (cell-free) was 92.9%. For the same compound, the IC50 in assay [3] (cell-free) was 47 nM; in assay [8] (setting [15]), 10 µM; in assay [8] (setting [14]) it was greater than 10 µM; in assay [9], greater than 10 µM; in [10], greater than 10 µM.
With `Clc1cccc(Nc2nc3c(-c4nc[nH]n4)cccc3c3ccncc23)c1`, the IC50 in assay [1] is greater than 10000 nM; in assay [2], greater than 10000 nM; in [3] (Table 45), less than 100 nM; in assay [4], greater than 10000 nM; in assay [7], less than 500 nM; in assay [5] it was greater than 10000 nM.
Regarding `CN(C)CCNc1nc2cc(C(=O)O)ccc2c2sccc12`, the inhibition at 0.5 µM in [3] (cell-free) is 83.4%. Besides, the IC50 in [8] (setting [15]) was 10 µM; in assay [9], greater than 10 µM; in assay [10] it was greater than 10 µM.
As to `CN(c1ccc(Cl)cc1)c1nc2c(-c3nc[nH]n3)cccc2c2cnccc12`, the IC50 in [1] is less than 1000 nM; in [2] it was less than 5000 nM; in assay [3] (Table 45), less than 100 nM; in [4], greater than 10000 nM; in [7] it was less than 5000 nM; in [5], less than 500 nM.
With `O=C(O)c1ccc2c(c1)nc(Nc1ccc(F)c(F)c1)c1ccsc12`, the inhibition at 0.5 µM in assay [3] (cell-free) came out at 85.7%. Further, the IC50 was 239 nM in [3] (cell-free), 0.832 µM in assay [8] (setting [14]), 0.658 µM in [9] and greater than 10 µM in assay [10].
With `COc1ccc(Nc2nc3c(-c4nc[nH]n4)cccc3c3cnccc23)cc1`, the IC50 in assay [1] is less than 100 nM; in assay [2], less than 500 nM; in assay [3] (Table 45), less than 100 nM; in assay [6], less than 100 nM; in assay [7] it was less than 100 nM; in assay [5], less than 500 nM.
On to `CN(c1ccccc1)c1nc2cc(C(=O)O)ccc2c2sccc12`, for which the inhibition at 0.5 µM in [3] (cell-free) turned out to be 61.4%. Moreover, the IC50 is 404 nM in [3] (cell-free), 10 µM in [8] (setting [15]), greater than 10 µM in assay [9] and greater than 10 µM in assay [10].
Take `Clc1ccccc1Nc1nc2c(-c3nnc[nH]3)cccc2c2cnccc12` [drawing 2209]: the IC50 is less than 500 nM in assay [2], less than 500 nM in assay [4], less than 100 nM in assay [7] and less than 5000 nM in assay [5].
Take `O=C(O)c1ccc2c(c1)nc(Nc1ccc(F)c(Cl)c1)c1ccsc12`: the inhibition at 0.5 µM in assay [3] (cell-free) is 80.8%. Moreover, the IC50 in [3] (cell-free) was 257 nM; in [8] (setting [15]), 10 µM; in assay [9], 0.455 µM; in [10], greater than 10 µM.
`COC(=O)c1ccc2c(c1)nc(Nc1cccc(Cl)c1)c1ccncc12`: the inhibition at 0.5 µM in [3] (cell-free) is 7.83%; in [11] it was 13.4%. The figures for the IC50 in assay [9], in [12] and in assay [10] were 0.161 µM, greater than 400 nM and 0.217 µM, respectively.
As to `FC(F)(F)c1cccc(Nc2nc3cc(-c4nnn[nH]4)ccc3c3sccc23)c1`, the inhibition at 0.5 µM in [3] (cell-free) came out at 59%. Besides, the IC50 in assay [3] (cell-free) is 205 nM; in assay [8] (setting [13]) it was greater than 10 µM; in assay [9], 0.093 µM; in [12] it was greater than 400 nM; in [10], greater than 10 µM; in assay [11] (15 um ATP, read-out: CK2 (15 um ATP) IC50), 458 nM. In assay [11] (20 um ATP, read-out: CK2 (20 um ATP) IC50), the IC50 turned out to be 406 nM.
Regarding `Fc1cccc(Nc2nc3cc(-c4nnn[nH]4)ccc3c3sccc23)c1`, the inhibition at 0.5 µM in assay [3] (cell-free) was 76.6%. Besides, the IC50 in assay [3] (cell-free) is 138 nM; in [9] it was 0.525 µM; in assay [12], greater than 400 nM; in assay [10], greater than 10 µM.
In the case of `c1cc(-c2nc[nH]n2)c2nc(NCC3CC3)c3ccncc3c2c1`, the IC50 in assay [1] was less than 100 nM; in assay [2], less than 10000 nM; in [3] (Table 45), less than 100 nM; in [6], less than 100 nM; in assay [7], less than 500 nM; in assay [5], greater than 10000 nM.
As for `N#Cc1cc(F)cc(Nc2nc3cc(C(=O)O)ccc3c3sccc23)c1`, in assay [3] (cell-free), the inhibition at 0.5 µM worked out at 87%. Further, the IC50 in [3] (cell-free) is 252 nM; in [8] (setting [14]), greater than 10 µM; in assay [9], 1.46 µM; in assay [10], greater than 10 µM.
Turning to `Cc1ccccc1Nc1nc2c(-c3nnc[nH]3)cccc2c2cnccc12`, the IC50 in assay [2] was less than 1000 nM; in [4], greater than 10000 nM; in assay [5], less than 1000 nM.
As to `Clc1cccc(Nc2nc3cc(-c4nnn[nH]4)ccc3c3cnccc23)c1`, the inhibition at 0.5 µM in assay [3] (cell-free) came to 48.6%. Also, the IC50 stood at 863 nM in [3] (cell-free), 0.032 µM in assay [9], 305 nM in [12] and 8.2 µM in [10].
For the compound `Fc1cccc(Nc2nc3c(-c4nnc[nH]4)cccc3c3cnccc23)c1`, the IC50 in assay [1] is less than 500 nM; in assay [2] it was less than 1000 nM; in [3] (Table 45), less than 100 nM; in assay [6], less than 500 nM.
Turning to `N#Cc1cccc(Nc2nc3cc(C(=O)O)ccc3c3cnccc23)c1`, the inhibition at 0.5 µM in assay [3] (cell-free) is 92.4%. Moreover, the IC50 in assay [3] (cell-free) was 58 nM; in assay [9], greater than 10 µM; in assay [12], 12 nM; in assay [10], 9.15 µM.
